{"source": "patent US11291643B2", "about": "“Methods of treating hypertriglyceridemia” (Amarin Pharmaceuticals Ireland Limited, priority 2011, dated 2022)", "assay_type_in_all_cases": "in vivo, human", "key": {"[1]": {"system": "patients with fasting triglyceride levels ≥500 mg/dL", "assay": "Lipoprotein particle size by NMR spectroscopy in the clinical study", "conditions": "for VLDL particle size, placebo-adjusted median percent change from baseline: Hodges-Lehmann median; for HDL particle size, median change from baseline / LDL particle size, median change from baseline / VLDL particle size, median change from baseline: baseline to study end; for HDL particle size, end-of-treatment value (median) / LDL particle size, end-of-treatment value (median) / VLDL particle size, end-of-treatment value (median): study end", "experimental": "(§1) Lipoprotein particle concentrations and sizes were measured with nuclear magnetic resonance spectroscopy in the above described clinical trial. Lipoprotein particle size and concentration parameters were obtained from fasting blood samples. Lipoprotein particle size and concentrations are measured by nuclear magnetic resonance (NMR) spectroscopy at LipoScience, Inc. (Raleigh, N.C.) using the LipoProfile-3 algorithm. VLDL, LDL, and HDL subclasses of different size were quantified from the amplitudes of their spectroscopically-distinct lipid methyl group NMR signals.\n(§2) Subjects with missing baseline or Week 12 measurements, due to either missing laboratory samples or un-reportable values, were excluded from this analysis. The median difference of each lipoprotein particle variable (percent change from baseline) between each AMR101 treatment group and the placebo group was evaluated with a nonparametric test using the Hodges-Lehmann medians of the differences between treatment groups and the Wilcoxon rank-sum test (significance level 0.05). All statistical analyses were carried out using SAS 9.2 software."}, "[2]": {"system": "patients with fasting triglyceride levels ≥500 mg/dL", "assay": "12-week placebo-controlled double-blind clinical study: fasting lipid parameters", "experimental": "A multi-center, placebo-controlled randomized, double-blind, 12-week study with an open-label extension was performed to evaluate the efficacy and safety of AMR101 in patients with fasting triglyceride levels ≥500 mg/dL. The primary objective of the study was to determine the efficacy of AMR101 2 g daily and 4 g daily, compared to placebo, in lowering fasting TG levels in patients with fasting TG levels ≥500 mg/dL and ≤1500 mg/dL (≥5.65 mmol/L and ≤16.94 mmol/L). The population for this study was men and women (women of childbearing potential needed to be on contraception or practice abstinence) >18 years of age with a body mass index ≤45 kg/m^2 who were not on lipid-altering therapy or are currently on lipid-altering therapy. Patients currently on statin therapy (with or without ezetimibe) were evaluated by the investigator as to whether this therapy could be safely discontinued at screening, or if it should be continued. If statin therapy (with or without ezetimibe) was to be continued, dose(s) must be stable for ≥4 weeks prior to randomization. Patients taking non-statin, lipid-altering medications (niacin >200 mg/day, fibrates, fish oil, other products containing omega-3 fatty acids, or other herbal products or dietary supplements with potential lipid-altering effects), either alone or in combination with statin therapy (with or without ezetimibe), must have been able to safely discontinue non-statin, lipid-altering therapy at screening. Approximately 240 patients were sought to be randomized at approximately 50 centers in North America, South America, Central America, Europe, India, and South Africa. The study was be a 58- to 60-week, Phase 3, multi-center study consisting of 3 study periods: (1) A 6- to 8-week screening period that included a diet and lifestyle stabilization and washout period and a TG qualifying period; (2) A 12-week, double-blind, randomized, placebo-controlled treatment period; and (3) A 40-week, open-label, extension period. After confirmation of qualifying fasting TG values, eligible patients entered a 12-week, randomized, double-blind treatment period. At Visit 4 (Week 0), patients were randomly assigned to 1 of the following treatment groups: • AMR101 2 g daily, • AMR101 4 g daily, or • Placebo. Eligible patients were randomly assigned at Visit 4 (Week 0) to receive orally AMR101 2 g daily, AMR101 4 g daily, or placebo for the 12-week double-blind treatment period. AMR101 was provided in 1 g liquid-filled, oblong, gelatin capsules. The matching placebo capsule was filled with light liquid paraffin and contained 0 g of AMR101. During the double-blind treatment period, patients took 2 capsules (AMR101 or matching placebo) in the morning and 2 in the evening for a total of 4 capsules per day. Patients in the AMR101 2 g/day treatment group received 1 AMR101 1 g capsule and 1 matching placebo capsule in the morning and in the evening. Patients in the AMR101 4 g/day treatment group received 2 AMR101 1 g capsules in the morning and evening. The primary efficacy variable for the double-blind treatment period was percent change in TG from baseline to Week 12 endpoint. […]"}, "[3]": {"system": "patients with fasting triglyceride levels ≥500 mg/dL", "assay": "Lipoprotein particle concentration by NMR spectroscopy in the clinical study", "conditions": "2 g/day vs placebo", "experimental": "as §1\nConcentrations of the following subclasses of lipoproteins were analyzed in this study: small LDL (18.0-20.5 nm), large LDL (20.5-23.0 nm), intermediate-density lipoprotein (IDL; 23.0-29.0 nm), large high-density lipoprotein (HDL; 9.4-14.0 nm), medium HDL (8.2-9.4 nm), small HDL (7.3-8.2 nm), large very-low-density lipoprotein (VLDL; >60 nm), medium VLDL (42-60 nm), and small VLDL (29-42 nm).\nas §2"}}, "data": [{"smiles": "CC/C=C\\C/C=C\\C/C=C\\C/C=C\\C/C=C\\CCCC(=O)OCC", "note": "[AMR101, ethyl eicosapentaenoate]", "values": [{"measurement": "VLDL particle size, placebo-adjusted median percent change from baseline", "setting": "[1]; 2 g/day vs placebo", "value": "−4.0", "unit": "%"}, {"measurement": "HDL particle size, median change from baseline", "setting": "[1]; 2 g/day, n = 63", "value": 0.0, "unit": "%"}, {"measurement": "LDL particle size, median change from baseline", "setting": "[1]; 2 g/day, n = 63", "value": 0.0, "unit": "%"}, {"measurement": "VLDL particle size, median change from baseline", "setting": "[1]; 2 g/day, n = 63", "value": "−3.4", "unit": "%"}, {"measurement": "HDL particle size, end-of-treatment value (median)", "setting": "[1]; 2 g/day, n = 63", "value": 8.9, "unit": "nm"}, {"measurement": "LDL particle size, end-of-treatment value (median)", "setting": "[1]; 2 g/day, n = 63", "value": 19.6, "unit": "nm"}, {"measurement": "VLDL particle size, end-of-treatment value (median)", "setting": "[1]; 2 g/day, n = 63", "value": 60.6, "unit": "nm"}, {"measurement": "VLDL particle size, placebo-adjusted median percent change from baseline", "setting": "[1]; 4 g/day vs placebo", "value": "−8.6", "unit": "%"}, {"measurement": "LDL particle size, median change from baseline", "setting": "[1]; 4 g/day, n = 60", "value": 0.0, "unit": "%"}, {"measurement": "LDL particle size, end-of-treatment value (median)", "setting": "[1]; 4 g/day, n = 60", "value": 19.7, "unit": "nm"}, {"measurement": "HDL particle size, median change from baseline", "setting": "[1]; 4 g/day, n = 61", "value": 1.1, "unit": "%"}, {"measurement": "VLDL particle size, median change from baseline", "setting": "[1]; 4 g/day, n = 61", "value": "−8.6", "unit": "%"}, {"measurement": "HDL particle size, end-of-treatment value (median)", "setting": "[1]; 4 g/day, n = 61", "value": 8.9, "unit": "nm"}, {"measurement": "VLDL particle size, end-of-treatment value (median)", "setting": "[1]; 4 g/day, n = 61", "value": 55.7, "unit": "nm"}, {"measurement": "Apo B median percent change, AMR101 2 g/day vs. Placebo", "setting": "[2]; 2 g/day vs placebo, 12 weeks", "value": "−2.6", "unit": "%"}, {"measurement": "HDL-C median percent change, AMR101 2 g/day vs. Placebo", "setting": "[2]; 2 g/day vs placebo, 12 weeks", "value": 1.5, "unit": "%"}, {"measurement": "LDL-C median percent change, AMR101 2 g/day vs. Placebo", "setting": "[2]; 2 g/day vs placebo, 12 weeks", "value": 5.2, "unit": "%"}, {"measurement": "Lp-PLA2 median percent change, AMR101 2 g/day vs. Placebo", "setting": "[2]; 2 g/day vs placebo, 12 weeks", "value": "−5.1", "unit": "%"}, {"measurement": "Non-HDL-C median percent change, AMR101 2 g/day vs. Placebo", "setting": "[2]; 2 g/day vs placebo, 12 weeks", "value": "−8.1", "unit": "%"}, {"measurement": "TC median percent change, AMR101 2 g/day vs. Placebo", "setting": "[2]; 2 g/day vs placebo, 12 weeks", "value": "−6.8", "unit": "%"}, {"measurement": "TG median percent change, AMR101 2 g/day vs. Placebo", "setting": "[2]; 2 g/day vs placebo, 12 weeks", "value": "−19.7", "unit": "%"}, {"measurement": "VLDL-C median percent change, AMR101 2 g/day vs. Placebo", "setting": "[2]; 2 g/day vs placebo, 12 weeks", "value": "−15.3", "unit": "%"}, {"measurement": "VLDL-TG median percent change, AMR101 2 g/day vs. Placebo", "setting": "[2]; 2 g/day vs placebo, 12 weeks", "value": "−17.3", "unit": "%"}, {"measurement": "Apo B median percent change from baseline", "setting": "[2]; 2 g/day, 12 weeks", "value": 2.1, "unit": "%"}, {"measurement": "HDL-C median percent change from baseline", "setting": "[2]; 2 g/day, 12 weeks", "value": 0.0, "unit": "%"}, {"measurement": "LDL-C median percent change from baseline", "setting": "[2]; 2 g/day, 12 weeks", "value": "−2.5", "unit": "%"}, {"measurement": "Lp-PLA2 median percent change from baseline", "setting": "[2]; 2 g/day, 12 weeks", "value": "−5.1", "unit": "%"}, {"measurement": "Non-HDL-C median percent change from baseline", "setting": "[2]; 2 g/day, 12 weeks", "value": 0.0, "unit": "%"}, {"measurement": "TC median percent change from baseline", "setting": "[2]; 2 g/day, 12 weeks", "value": 0.7, "unit": "%"}, {"measurement": "TG median percent change from baseline", "setting": "[2]; 2 g/day, 12 weeks", "value": "−7.0", "unit": "%"}, {"measurement": "VLDL-C median percent change from baseline", "setting": "[2]; 2 g/day, 12 weeks", "value": 0.0, "unit": "%"}, {"measurement": "VLDL-TG median percent change from baseline", "setting": "[2]; 2 g/day, 12 weeks", "value": "−6.4", "unit": "%"}, {"measurement": "Apo B median percent change, AMR101 4 g/day vs. Placebo", "setting": "[2]; 4 g/day vs placebo, 12 weeks", "value": "−8.5", "unit": "%"}, {"measurement": "HDL-C median percent change, AMR101 4 g/day vs. Placebo", "setting": "[2]; 4 g/day vs placebo, 12 weeks", "value": "−3.6", "unit": "%"}, {"measurement": "LDL-C median percent change, AMR101 4 g/day vs. Placebo", "setting": "[2]; 4 g/day vs placebo, 12 weeks", "value": "−2.3", "unit": "%"}, {"measurement": "Lp-PLA2 median percent change, AMR101 4 g/day vs. Placebo", "setting": "[2]; 4 g/day vs placebo, 12 weeks", "value": "−13.6", "unit": "%"}, {"measurement": "Non-HDL-C median percent change, AMR101 4 g/day vs. Placebo", "setting": "[2]; 4 g/day vs placebo, 12 weeks", "value": "−17.7", "unit": "%"}, {"measurement": "TC median percent change, AMR101 4 g/day vs. Placebo", "setting": "[2]; 4 g/day vs placebo, 12 weeks", "value": "−16.3", "unit": "%"}, {"measurement": "TG median percent change, AMR101 4 g/day vs. Placebo", "setting": "[2]; 4 g/day vs placebo, 12 weeks", "value": "−33.1", "unit": "%"}, {"measurement": "VLDL-C median percent change, AMR101 4 g/day vs. Placebo", "setting": "[2]; 4 g/day vs placebo, 12 weeks", "value": "−28.6", "unit": "%"}, {"measurement": "VLDL-TG median percent change, AMR101 4 g/day vs. Placebo", "setting": "[2]; 4 g/day vs placebo, 12 weeks", "value": "−25.8", "unit": "%"}, {"measurement": "Apo B median percent change from baseline", "setting": "[2]; 4 g/day, 12 weeks", "value": "−3.8", "unit": "%"}, {"measurement": "HDL-C median percent change from baseline", "setting": "[2]; 4 g/day, 12 weeks", "value": "−3.5", "unit": "%"}, {"measurement": "LDL-C median percent change from baseline", "setting": "[2]; 4 g/day, 12 weeks", "value": "−4.5", "unit": "%"}, {"measurement": "Lp-PLA2 median percent change from baseline", "setting": "[2]; 4 g/day, 12 weeks", "value": "−17.1", "unit": "%"}, {"measurement": "Non-HDL-C median percent change from baseline", "setting": "[2]; 4 g/day, 12 weeks", "value": "−7.7", "unit": "%"}, {"measurement": "TC median percent change from baseline", "setting": "[2]; 4 g/day, 12 weeks", "value": "−7.3", "unit": "%"}, {"measurement": "TG median percent change from baseline", "setting": "[2]; 4 g/day, 12 weeks", "value": "−26.6", "unit": "%"}, {"measurement": "VLDL-C median percent change from baseline", "setting": "[2]; 4 g/day, 12 weeks", "value": "−19.5", "unit": "%"}, {"measurement": "VLDL-TG median percent change from baseline", "setting": "[2]; 4 g/day, 12 weeks", "value": "−25.2", "unit": "%"}, {"measurement": "Reduction of median apolipoprotein B compared with placebo", "setting": "[2]; 4 g/day, previously reported, stated as reduction", "value": 8.5, "unit": "%"}, {"measurement": "Small LDL particle concentration, placebo-adjusted median percent change from baseline", "setting": "[3]; Hodges-Lehmann median", "value": "−12.8", "unit": "%"}, {"measurement": "Total HDL particle concentration, placebo-adjusted median percent change from baseline", "setting": "[3]; Hodges-Lehmann median", "value": "−3.0", "unit": "%"}, {"measurement": "Total LDL particle concentration, placebo-adjusted median percent change from baseline", "setting": "[3]; Hodges-Lehmann median", "value": "−1.1", "unit": "%"}, {"measurement": "Reduction of small LDL particle concentration", "setting": "[3]; stated as reduction", "value": 12.8, "unit": "%"}]}]}
